The target in this assay is T1, MAL^TIR (Homo sapiens, UniProt P58753).
T1 construct: MAL (residues 79–221); 6xHis; made in house; host or cells: E. coli BL21 (DE3)
Nature of the assay: T‐Surf phage library (P8 and P3) selection against MAL^TIR, four rounds, NGS read counts. The assay is classed as binding. The following applies: for P8_MAL Rank (after) / P8_MAL Rank (before): P8 library; for P3_MAL Rank (after) / P3_MAL Rank (before): P3 library; for Population: P8_MAL pool: P8 T-Surf phage library, 4th round of selection against MAL TIR, share of NGS reads. Put shortly: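 P8 and P3 T‐Surf libraries panned against plate-coated TIR domains (5 µg mL^−1), 1 h binding at RT, acid elution and TG1/helper-phage amplification per round. After four rounds, pools were PCR-barcoded and sequenced (NovaSeq, 100 bp paired-end, Phred ≥30); peptides ranked by read counts.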

Setting [1] is: P8_MAL: rank by count after grouping.
[2] abbreviates: P8_MAL: rank by count before grouping.
Setting [3] is: selection against MAL, rank after grouping.
The mark [4] stands for this setting: selection against MAL, rank before grouping.
The mark [5] stands for this setting: 4R selection against MAL, rank after grouping.
Setting [6] is: 4R selection against MAL, rank before grouping.
Setting [7] is: selection against MAL TIR, rank by count after grouping.
[8] abbreviates: selection against MAL TIR, rank by count before grouping.
The mark [9] stands for this setting: selection against MAL, rank by count after grouping.
The mark [10] stands for this setting: selection against MAL, rank by count before grouping.
Where [11] appears, read: P3_MAL: rank by count after grouping.
Setting [12] is: P3_MAL: rank by count before grouping.

T1 sequence (P58753 79-221): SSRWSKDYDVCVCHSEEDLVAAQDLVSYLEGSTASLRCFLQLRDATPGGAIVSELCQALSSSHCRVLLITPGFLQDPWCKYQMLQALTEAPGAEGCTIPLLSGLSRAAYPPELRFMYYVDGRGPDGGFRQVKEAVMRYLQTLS

TFLGPLYNALVQAGIP: the “Rank (after)” value under setting [1] came out at 120. Besides, under setting [2], the “Rank (before)” value was 2553.

Turning to TFLGPQYNALVQAGTH, under setting [3], the “P8_MAL Rank (after)” value is reported as 484. Besides, under setting [4], the “P8_MAL Rank (before)” value was 2554.

TFLGQTYNAQAPAEIP: under setting [5], the “P8_MAL Rank (after)” value is given as 644. The “P8_MAL Rank (before)” value under setting [6] came out at 2613.

As for TFLIHQNNARMHANIL, the “P8_MAL Rank (after)” value under setting [7] worked out at 253. The “P8_MAL Rank (before)” value under setting [8] worked out at 2545.

For TFLRHLYNALVQAGLH, under setting [7], the “P8_MAL Rank (after)” value came to 245. In addition, the “P8_MAL Rank (before)” value under setting [8] is on record as 2627.

Consider TFLYTFLINLTHPTNY, for which the “P8_MAL Rank (after)” value under setting [5] is on record as 674. For the same substance, under setting [6], the “P8_MAL Rank (before)” value is listed as 2533.

Consider TFPGHLYNALVQAGIL, for which the “Rank (after)” value under setting [1] is listed as 180. Under setting [2], the “Rank (before)” value is 2633.

With TLLCHLYNALVQAGIH, the “P8_MAL Rank (after)” value under setting [7] is given as 239. The “P8_MAL Rank (before)” value under setting [8] was found to be 2637.

As to TLLDHLCNELVQAGIH, the “P8_MAL Rank (after)” value under setting [9] was determined as 721. Besides, the “P8_MAL Rank (before)” value under setting [10] is given as 2639.

TRFCDRRCLTVAGSSA: the “Rank (after)” value under setting [11] amounted to 409. Moreover, the “Rank (before)” value under setting [12] came to 3235.

Consider TRPYLDWPQEPEMHEA, for which, under setting [1], the “Rank (after)” value is listed as 434. For the same substance, the “Rank (before)” value under setting [2] is on record as 2652.

Take TSFREGLLRLLELSKK: the “P3_MAL Rank (after)” value under setting [9] worked out at 754. In addition, the “P3_MAL Rank (before)” value under setting [10] worked out at 3239.

As for TSHLHHAMRLNKIDTF, under setting [5], the “P3_MAL Rank (after)” value amounted to 633. In addition, the “P3_MAL Rank (before)” value under setting [6] was found to be 3244.

Turning to TYLGNLNNALVQAGIH, under setting [3], the “P8_MAL Rank (after)” value came out at 490. In addition, the “P8_MAL Rank (before)” value under setting [4] is 2649.

Consider VELAQVRKQRDAGEKV, for which the “Rank (after)” value under setting [11] is 412. In addition, the “Rank (before)” value under setting [12] turned out to be 1644.

For the substance VEPTQGRKQLGAVENA, the “P3_MAL Rank (after)” value under setting [3] was found to be 573. Besides, the “P3_MAL Rank (before)” value under setting [4] was found to be 1683.

Consider VEPTQVRKLRGAVEKV, for which, under setting [9], the “P3_MAL Rank (after)” value is given as 743. Moreover, under setting [10], the “P3_MAL Rank (before)” value is on record as 1658.

With VEPTQVRKQRCGGKC, under setting [9], the “P3_MAL Rank (after)” value is 760. Further, the “P3_MAL Rank (before)” value under setting [10] is reported as 1661.

On to VEPTQVRKQSGAVEM, for which, under setting [9], the “P3_MAL Rank (after)” value turned out to be 716. In addition, the “P3_MAL Rank (before)” value under setting [10] is 1671.

Consider VEPTQVRKQSGAVENATG, for which, under setting [9], the “P3_MAL Rank (after)” value amounted to 676. Under setting [10], the “P3_MAL Rank (before)” value stood at 1673.

As to VEPTQVRKQSGSVKNA, the “P3_MAL Rank (after)” value under setting [7] is reported as 244. Also, the “P3_MAL Rank (before)” value under setting [8] is recorded as 1663.

Turning to VEPTQVRTQSGAAENA, under setting [9], the “P3_MAL Rank (after)” value came to 753. Besides, the “P3_MAL Rank (before)” value under setting [10] is 1651.

Regarding VEQTQVRKPSGAVENA, the “P3_MAL Rank (after)” value under setting [5] is reported as 627. Besides, under setting [6], the “P3_MAL Rank (before)” value turned out to be 1687.

Regarding VFFWAQLKKVLRNPTR, the “P8_MAL Rank (after)” value under setting [5] was 627. Moreover, the “P8_MAL Rank (before)” value under setting [6] was 1563.

For the substance VFLYTFLINLTHPTNF, the Population is on record as 0.00309%.

With VGWFLHTLCQLILQKG, the “P3_MAL Rank (after)” value under setting [5] is recorded as 632. Also, the “P3_MAL Rank (before)” value under setting [6] worked out at 1630.

VGWFLHTLSQHILKREK: the “Rank (after)” value under setting [11] was 168. Also, the “Rank (before)” value under setting [12] worked out at 528.

Turning to VLHKFIGYLRDALQHR, the “Rank (after)” value under setting [11] was determined as 184. Besides, the “Rank (before)” value under setting [12] was determined as 1689.

For VLQKFISHLYDFLARK, under setting [7], the “P3_MAL Rank (after)” value was 262. Also, the “P3_MAL Rank (before)” value under setting [8] is given as 761.

For VLQNFISHPYDFLARK, the “P3_MAL Rank (after)” value under setting [3] came to 570. Besides, the “P3_MAL Rank (before)” value under setting [4] turned out to be 1688.

Turning to VRHNFIGYLRDALQHR, the “Rank (after)” value under setting [11] came to 94. Also, the “Rank (before)” value under setting [12] is recorded as 94.

For VRHSFAGYRYDALNRL, under setting [7], the “P3_MAL Rank (after)” value worked out at 197. For the same substance, the “P3_MAL Rank (before)” value under setting [8] was found to be 1698.

Consider VRHTFAGYLCVALNRL, for which the “Rank (after)” value under setting [11] is recorded as 431. The “Rank (before)” value under setting [12] amounted to 1700.

As for VRHTFAGYLYDALHRNRI, under setting [11], the “Rank (after)” value came out at 404. Under setting [12], the “Rank (before)” value came out at 1703.

VRQNFISHLYDALHRNRI: the “Rank (after)” value under setting [11] was determined as 140. Moreover, the “Rank (before)” value under setting [12] is listed as 406.

For the substance VRVVDDGSVSPLEM, the “P3_MAL Rank (after)” value under setting [3] was 512. Also, under setting [4], the “P3_MAL Rank (before)” value was found to be 1691.

As for VTKLKKGKSIAPKLLR, the “Rank (after)” value under setting [1] is reported as 469. Also, the “Rank (before)” value under setting [2] was determined as 1562.

As for WCYERRVSLILRETKV, under setting [1], the “Rank (after)” value stood at 385. The “Rank (before)” value under setting [2] came out at 1403.

With WDDPWFWDKLHYAMPR, the “Rank (after)” value under setting [1] is 463. In addition, under setting [2], the “Rank (before)” value was 1422.

Take WF*ERLVSLILRDTKV: the Population came out at 0.00278%.

Take WFFDGLVSLFLGDTKL: the “P8_MAL Rank (after)” value under setting [3] is reported as 537. Further, under setting [4], the “P8_MAL Rank (before)” value was determined as 1112.

Consider WFFEPLVILIPRDTKV, for which, under setting [1], the “Rank (after)” value turned out to be 411. Further, the “Rank (before)” value under setting [2] was determined as 1115.

As to WFFERLVKLILRDTKV, the “P8_MAL Rank (after)” value under setting [9] is 712. The “P8_MAL Rank (before)” value under setting [10] was determined as 1114.

As to WFFERLVRPILRGTQG, the “P8_MAL Rank (after)” value under setting [3] is 559. Under setting [4], the “P8_MAL Rank (before)” value came out at 1113.

WFFERLVSLILRDTKV yielded a Population of 0.0034%.

With WFFPETGKIFEARKTI, the “P3_MAL Rank (after)” value under setting [9] was 709. Besides, the “P3_MAL Rank (before)” value under setting [10] is reported as 1219.

In the case of WFFQEKVKIFEARKTI, the “P3_MAL Rank (after)” value under setting [5] is on record as 669. Besides, the “P3_MAL Rank (before)” value under setting [6] was 1224.

For WFIIKFRTVLDRVNDV, under setting [1], the “Rank (after)” value is given as 396. In addition, the “Rank (before)” value under setting [2] was determined as 1372.

With WFLEQLEKILEAHGTT, under setting [9], the “P8_MAL Rank (after)” value amounted to 715. Further, the “P8_MAL Rank (before)” value under setting [10] turned out to be 1353.

As for WFLFTFLINLTHPTNF, the “P8_MAL Rank (after)” value under setting [3] amounted to 523. Further, the “P8_MAL Rank (before)” value under setting [4] turned out to be 1314.

For the substance WFLFTVRSAIYAMDQVADT, the “Rank (after)” value under setting [1] is 459. Also, under setting [2], the “Rank (before)” value came out at 1324.

For WFLFTVRSAIYSISRA, under setting [9], the “P8_MAL Rank (after)” value was 692. For the same substance, the “P8_MAL Rank (before)” value under setting [10] is on record as 1346.

For the substance WFLFTVRSATYTMSPA, the “P8_MAL Rank (after)” value under setting [7] came to 220. Moreover, the “P8_MAL Rank (before)” value under setting [8] is 1338.

Take WFLLKFRTVLAHVNDV: the “P8_MAL Rank (after)” value under setting [3] was 511. In addition, the “P8_MAL Rank (before)” value under setting [4] was 1354.

Regarding WFLSAFLIPMAQLADT, the “Rank (after)” value under setting [1] was 412. Further, the “Rank (before)” value under setting [2] came out at 1352.

On to WFLTAFRVAMEQVADT, for which the “P8_MAL Rank (after)” value under setting [5] is reported as 662. The “P8_MAL Rank (before)” value under setting [6] worked out at 1359.

In the case of WFMMKFRTVLDRVPEV, under setting [3], the “P8_MAL Rank (after)” value is listed as 482. The “P8_MAL Rank (before)” value under setting [4] amounted to 1378.

As to WFMMKFRTVLGKPTM, under setting [7], the “P8_MAL Rank (after)” value was found to be 216. Besides, the “P8_MAL Rank (before)” value under setting [8] amounted to 760.

For the substance WFMMKFRTVLYHVNYV, the “Rank (after)” value under setting [1] stood at 398. Under setting [2], the “Rank (before)” value turned out to be 1377.

On to WFMMTFRTVLHHVHDV, for which the “Rank (after)” value under setting [1] turned out to be 425. Also, under setting [2], the “Rank (before)” value came out at 1374.

In turn, WFMNVW*A*FCVIPKX came in with a Population of 0.00432%.

With WFNIRLVTVLDHVNDV, the “P8_MAL Rank (after)” value under setting [3] was 573. In addition, under setting [4], the “P8_MAL Rank (before)” value was determined as 1391.

Take WFWDKLKYALPHRYEP: the “Rank (after)” value under setting [1] was found to be 113. Under setting [2], the “Rank (before)” value was 556.

With WFWEKLRYALTAAANLSGW, the “Rank (after)” value under setting [11] was found to be 149. Also, under setting [12], the “Rank (before)” value turned out to be 501.

Turning to WFWNNLKYALPLRYDP, the “Rank (after)” value under setting [11] amounted to 451. In addition, the “Rank (before)” value under setting [12] worked out at 1266.

For the origin of these results see paper PMC11714206, “Massively Parallel Screening of Toll/Interleukin‐1 Receptor (TIR)‐Derived Peptides Reveals Multiple Toll‐Like Receptors (TLRs)‐Targeting Immunomodulatory Peptides” (Advanced Science, 2024).
